Entries after “also recorded” stand apart in the source; their conditions may differ.
How the values were obtained:
[1] = Conversion of compounds in human plasma; type: in vitro ADME
Procedure: Frozen human plasma was thawed and then centrifuged at 3200×g for 5 min to remove debris. The pH value of the supernatant was then measured and adjusted to 7.4±0.1 by adding 1% phosphoric acid or 1 N sodium hydroxide. 2 μL of dosing solution (50 μM for test compounds and 100 μM for positive control (propantheline bromide)) was mixed with 98 μL of blank plasma to achieve 1 μM test compound and 2 μM positive control of final concentration. The mixture was incubated, and samples were withdrawn from the incubations at the pre-determined time points of 0, 0.5, 1, 2, 4 and 6 hr (in duplicate) at 37° C. in water bath. At each corresponding time point 10 μL inhibitor and 20 μL ascorbic acid and 2 μL formic acid (20%) are added, and then added 400 μL of “stop solution” (200 ng/mL tolbutamide plus 200 ng/mL labetalol in 50% ACN/MeOH) to precipitate protein. The substance was mixed thoroughly and thereafter Centrifugated at 4,000 rpm for 20 minutes. Then an aliquot of supernatant (50 μL) was transferred from each well to a sample plate and mixed with 100 μL ultrapure water. The plate was shaked at 800 rpm for about 10 minutes before submitting to LC-MS/MS analysis.
(§1) Mass spectrometer (LC-MS/MS) Shimadzu LC 20-AD Shimadzu UHPLC API 4000. Analytical column ACQUITY UPLC® BEH Phenyl 1.7 μm 2.1×50 mm. Mobile phase A: 0.1% Formic Acid in Water. Mobile phase B: 0.1% Formic Acid in Acetonitrile. […] Flow rate 0.7 mL/min.

[2] = Liu et al., Bioorganic Med. Chem. (2008); cited from earlier work
[3] = WO 2010/097092; cited from earlier work
[4] = Liu et al.; cited from earlier work
[5] = PK experiments in rats, plasma compound (I) after oral dosing; type: in vivo, Han Wistar rats; conditions: for plasma concentrations of compound (I) after oral dosing (in words): oral dosing to Wistar rats
Procedure: Plasma was placed on water-ice following collection. Final storage at approximately −70° C.
Mobile phase B: Acetonitrile. […] Flow rate 0.5 mL/min.
The rats had unrestricted access to the diet.
Mobile phase B: Acetonitrile+0.2% formic acid. […] Flow rate 0.3 mL/min.
The rats received a standard laboratory diet Teklad 2014C. The rats had unrestricted access to the diet.

human 5-HT2B receptor [6] = biological target: T1, human 5-HT2B receptor (Homo sapiens (Human), UniProt P41595); assay: 5-HT2B agonist activity assay (IP1 production, HTRF); type: cell-based
T1 sequence (P41595 whole entry): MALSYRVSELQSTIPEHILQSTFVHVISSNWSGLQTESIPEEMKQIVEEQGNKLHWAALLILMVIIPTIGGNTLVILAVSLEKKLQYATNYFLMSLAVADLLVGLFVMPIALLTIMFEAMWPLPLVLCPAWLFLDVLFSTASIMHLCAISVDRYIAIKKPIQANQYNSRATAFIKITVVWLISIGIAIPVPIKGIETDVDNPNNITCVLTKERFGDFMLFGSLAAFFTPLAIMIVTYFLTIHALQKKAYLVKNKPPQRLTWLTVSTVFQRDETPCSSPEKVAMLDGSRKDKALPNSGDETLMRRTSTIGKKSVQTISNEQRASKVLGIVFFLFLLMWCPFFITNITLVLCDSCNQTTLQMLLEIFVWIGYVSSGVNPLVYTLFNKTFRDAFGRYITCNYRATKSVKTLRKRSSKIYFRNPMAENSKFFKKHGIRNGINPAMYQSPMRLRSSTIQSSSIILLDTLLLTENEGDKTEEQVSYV
Procedure: Evaluation of the agonist activity of compounds (I), (Ia), (Ib), (Ic), (Ia-iab), compound (2), compound (9), compound (15), compound (27), A2, A3, and A7 at the human 5-HT2B receptor was performed by Eurofins/Cerep (France) measuring the compound effects on inositol monophosphate (IP1) production using the HTRF detection method. Briefly, the human 5-HT2B receptor was expressed in transfected CHO cells. The cells were suspended in a buffer containing 10 mM Hepes/NaOH (pH 7.4), 4.2 mM KCl, 146 mM NaCl, 1 mM CaCl2, 0.5 mM MgCl2, 5.5 mM glucose and 50 mM LiCl, then distributed in microplates at a density of 4100 cells/well and incubated for 30 minutes at 37° C. in the presence of buffer (basal control), test compound or reference agonist. For stimulated control measurement, separate assay wells contained 1 μM 5-HT. Following incubation, the cells were lysed and the fluorescence acceptor (fluorophen D2-labeled IP1) and fluorescence donor (anti-IP1 antibody labeled with europium cryptate) were added. After 60 minutes at room temperature, the fluorescence transfer was measured at lambda(Ex) 337 nm and lambda(Em) 620 and 665 nm using a microplate reader (Rubystar, BMG). The IP1 concentration was determined by dividing the signal measured at 665 nm by that measured at 620 nm (ratio). The results were expressed as a percent of the control response to 1 μM 5-HT. The standard reference agonist was 5-HT, which was tested in each experiment at several concentrations to generate a concentration-response curve from which its EC50 value is calculated as described above for dopamine functional assays.

rat hepatocytes = conditions: WO 2010/097092; cited from earlier work
human hepatocytes [7] = conditions: WO 2010/097092; cited from earlier work
[8] = In vitro dopaminergic activity (data not shown)
male CD rats = assay: Rat locomotor activity (hyperactivity) assay, open field; type: in vivo; conditions: for end of locomotor effect post administration: recording until 415-minute time point
Procedure: In total, 206 male CD rats (Charles River, Germany) weighing 200-250 grams (165-190 grams upon arrival) were used in the study. Animals were housed at a standard temperature (22±1° C.) and in a light-controlled environment (lights on from 7 am to 8 pm) with ad libitum access to food and water. The experiment described below was performed in accordance with the standard operating procedures of Charles River Discovery Research Services Finland Ltd. and in accordance with the national Animal Experiment Board of Finland (Elainkoelautakunta, ELLA) authority on animal testing.
The test device is a square Plexiglass-arena (measuring 40×40×40 cm), in which the movement paths of the rats are recorded by an activity monitor (Med. Associates Inc.). Before the test period is initiated, rats are habituated to their test cage for 60 minutes. Upon completion of habituation, animals were treated with either compound or vehicle and placed back into the open field apparatus. The main test parameter measured is ambulatory distance (recorded in 5 minute segments). Overall time of measurement after receiving initial treatment was 360 minutes. Total follow up period in the study was 420 minutes, including 60 minutes of habituation.
Blood samples were taken and processed and analyzed as described under PK experiments in rats in Example 3.

human hepatocytes [9] = assay: Conversion of compounds in human hepatocytes; type: in vitro ADME; conditions: 1 μM compound, 37° C.; nd: not detected
Procedure: Incubations were conducted in 96-well plates at 1 μM compound concentration in duplicate. The hepatocyte cell concentration was 0.5×10^6 cells/mL used for final incubation at 37° C. in an incubator of 5% CO2 95% relative humidity. The medium control samples were included at 0 and 60 minutes in the absence of cells. The total organic concentration was 1% (DMSO 0.1%) in the final incubation. The controls, (7-ethoxycoumarin and 7-hydroxycoumarin) was incubated parallel at 3 μM. 2 μL of dosing solution (50 μM for test compounds and 100 μM for positive control) was mixed with 98 μL of 100 mM PBS to achieve 1 μM test compound and 2 μM positive control of final concentration. The mixture was incubated, and samples were withdrawn from the incubations at pre-determined time points of 0, 0.5, 1, 2, 4 and 6 hr (in duplicate) at 37° C. in water bath. To each sample, 10 μL inhibitor and 20 μL ascorbic acid and 2 μL formic acid (20%) were added followed by 400 μL of stop solution (200 ng/mL tolbutamide plus 200 ng/mL labetalol in 50% ACN/MeOH). The substance was mixed thoroughly and thereafter centrifuged at 4,000 rpm for 20 minutes. An aliquot of supernatant (50 μL) from each well were transferred to a sample plate and mixed with 100 μL ultrapure water. The plate was shaked at 800 rpm for about 10 minutes before submitting to LC-MS/MS analysis.
as §1

human 5-HT2B receptor [10] = biological target: T1, human 5-HT2B receptor; assay: 5-HT2B binding assay; conditions: [125I](±)DOI, read-out: 5-HT2B binding affinity (% inhibition of control, specific binding)
Procedure: Evaluation of the affinity of said compounds for the human 5-HT2B receptor was determined in a radioligand binding assay at Eurofins/Cerep (France). Membrane homogenates prepared from CHO cells expressing the human 5HT2B receptor were incubated for 60 min at room temperature with 0.2 nM [125I](±)DOI (1-(4-iodo-2,5-dimethoxyphenyl)propan-2-amine) in the absence or presence of the test compound in a buffer containing 50 mM Tris-HCl (pH 7.4), 5 mM MgCl2, 10 μM pargyline and 0.1% ascorbic acid. Nonspecific binding is determined in the presence of 1 μM (±)DOI. Following incubation, the samples were filtered rapidly under vacuum through glass fiber filters (GF/B, Packard) presoaked with 0.3% polyethyleneimine (PEI) and rinsed several times with ice-cold 50 mM Tris-HCl using a 96-sample cell harvester (Unifilter, Packard). The filters were dried and counted for radioactivity in a scintillation counter (Topcount, Packard) using a scintillation cocktail (Microscint 0, Packard). The results are expressed as a percent inhibition of the control radioligand specific binding. The standard reference compound was (±)DOI, which was tested in each experiment at several concentrations to obtain a competition curve from which its IC50 is calculated.

[11] = in man after oral dosing; cited from earlier work
[12] = intravenous (IV), PD patients; cited from earlier work
[13] = (Id-ia) 10 to 300 μg/kg p.o., apomorphine 3 mg/kg s.c., pramipexole 0.3 mg/kg s.c.
[14] = (Id-ia) 10 to 300 μg/kg p.o., apomorphine 3 mg/kg s.c.

In the case of `CCCN1CCC[C@@H]2Cc3c(ccc(O)c3O)C[C@H]21` [(I), (4aR,10aR)-1-Propyl-1,2,3,4,4a,5,10,10a-octahydro-benzo[g]quinoline-6,7-diol], the “half-life in the plasma assay” value ([1]; human plasma) is listed as “short half-life”, the “oral bioavailability (in words)” value [2] is listed as “low oral bioavailability” and the “in vivo pharmacology in animal models relevant for Parkinson's Disease” value (“in vivo pharmacology” below) [3] is listed as “effective”.

In the case of `CCCN1CCC[C@@H]2CC3=C(CCCC3=O)C[C@H]21` [(Ia), reference compound], the “conversion to compound (I) in rats” value [4] is listed as “converted to the active compound (I)”, the “plasma concentrations of compound (I) after oral dosing (in words)” value [5] is listed as “early and high peak plasma concentrations” and the EC50 (human 5-HT2B receptor [6]; IP1 production, transfected CHO cells) is listed as over 6 µM. The activity at 30 µM (human 5-HT2B receptor [6]; read-out: 5-HT2B agonist activity, percent of control response) was 58% and the “in vivo pharmacology” value [3] was “effective”.

In the case of `CCCN1CCC[C@@H]2Cc3c(ccc4c3OCO4)C[C@H]21` [(Ib), (6aR,10aR)-7-propyl-6,6a,7,8,9,10,10a,11-octahydro-[1,3]dioxolo[4′,5′:5,6]benzo[1,2-g]quinoline], the “plasma concentrations of compound (I) after oral dosing (in words)” value [5] is listed as “early and high peak plasma concentrations”, the “5-HT2B receptor agonism (in words)” value (human 5-HT2B receptor [6]) is listed as “agonist” and the “conversion to compound (I) in rat hepatocytes” value (rat hepatocytes) is listed as “demonstrated”. For the same molecule, the “conversion to compound (I) in human hepatocytes” value (human hepatocytes [7]) was “demonstrated” and the “in vivo pharmacology” value [3] was “effective”.

For `CCCN1CCC[C@@H]2Cc3c(ccc(O)c3O[C@@H]3O[C@H](C(=O)O)[C@@H](O)[C@H](O)[C@H]3O)C[C@H]21` [(Id-ia), (2S,3S,4S,5R,6S)-3,4,5-trihydroxy-6-(((4aR,10aR)-7-hydroxy-1-propyl-1,2,3,4,4a,5,10,10a-octahydrobenzo[g]quinolin-6-yl)oxy)tetrahydro-2H-pyran-2-carboxylic acid], the “Observed metabolite, In vivo PK study after oral dosing (rats)” value [5] was “Compound (I)”, the “in vitro dopaminergic activity” value [8] was “no in vitro dopaminergic activity” and the “effect on locomotor activity” value (male CD rats; [13]) was “dopaminergic effect; also recorded: increases locomotor activity”. The “start of locomotor effect post-administration” value (male CD rats; [13]) was about 2 h, the “end of locomotor effect post administration” value (male CD rats; [14]) was “lasting until the end of recording” and the total distance travelled (male CD rats; relative to vehicle, FIG. 4) was “significantly increased activity”.

In the case of `CCCN1CCC[C@@H]2Cc3c(ccc(O[C@@H]4O[C@H](C(=O)O)[C@@H](O)[C@H](O)[C@H]4O)c3O)C[C@H]21` [(Id-ib), (2S,3S,4S,5R,6S)-3,4,5-tri hydroxy-6-(((4aR,10aR)-6-hydroxy-1-propyl-1,2,3,4,4a,5,10,10a-octahydrobenzo[g]quinolin-7-yl)oxy)tetrahydro-2H-pyran-2-carboxylic acid], the “Observed metabolite, Incubation in human hepatocytes” value (human hepatocytes [9]) is reported as “Compound (I)”, the “Observed metabolite, In vivo PK study after oral dosing (rats)” value [5] is reported as “Compound (I)” and the “Observed metabolite, Incubation in human plasma” value ([1]; 1 μM test compound, 37° C., 0-6 hr, nd: not detected) is reported as “Compound (I)”. The inhibition at 10 µM (human 5-HT2B receptor [10]) was -39%.

In the case of `CCCc1cc2c(s1)CN[C@@H]1CCc3cc(OC(C)=O)c(OC(C)=O)cc3[C@@H]21` [Adrogolide, adrogolide], the oral bioavailability [11] is listed as about 4% and the antiparkinson efficacy [12] is listed as “comparable to that of L-DOPA”.

In the case of `CN1CCc2cccc3c2[C@H]1Cc1ccc(O)c(O)c1-3` [apomorphine, reference compound], the “end of locomotor effect post administration” value (male CD rats; [14]) is reported as 1.5 h.

From US12384765B2, “Catecholamine prodrugs for use in the treatment of Parkinson's Disease” (H. Lundbeck A/S, priority 2019, dated 2025)
